Experimental data from patent US11059718B2, “Methods and compositions using peptides and proteins with C-terminal elements” (Sanford Burnham Prebys Medical Discovery Institute, priority 2009, dated 2021).
Where no end group is shown, it is not given here. [ ]: non-standard residue; d: D form.

Legend:
[1] = test system: PPC1 prostate cancer cells; assay: T7 phage binding and internalization on cultured PPC1 cells; type: cell-based, human; conditions: for phage binding to and internalization into PPC1 cells: peptide displayed at C-terminus of T7 phage coat protein, binding at 4° C., internalization at 37° C. with pH 2.5 wash; for effect of trypsin treatment of phage on binding to PPC1 cells: peptide-displaying phage treated with trypsin before cell binding
Description: To measure phage binding, 10^6 cells in binding buffer (DMEM containing 1% BSA) were incubated with 10^9 pfu/ml of T7 phage for 1 hour at 4° C. The cells were washed 4 times with the binding buffer, lysed in LB bacterial growth medium containing 1% NP-40, and titrated. Phage internalization assays used the same procedure, except that the cells were incubated with the phage at 37° C., and that an acidic buffer (500 mM sodium chloride, 0.1 M glycine, 1% BSA, pH 2.5) was used instead of binding buffer in the second wash.
Inhibitors of phage binding and internalization (heparin, chondroitin, glycocalyx removal enzymes, endocytosis inhibitors, free peptides, quantum dots and UV-inactivated phage) were added to the cells 20 minutes prior to incubation with phage. Endocytosis inhibitors used in this study were the following: nystatin (50 μg/ml), genistein (100 μg/ml), chlorpromazine (5 μg/ml), 5-(N-ethyl-N-isopropyl)amiloride (100 μM), wortmannin (10 μM).
M21 melanoma cells were transiently transfected with these constructs using lipofectamine according to manufacturer's instructions (Invitrogen, Carlsbad, Calif.). Protease treatment of phage and qdots. 10^9 phage particles or 50 μl of peptide-coated qdots phage were treated with 50 iu of uPA, 25 μg of crystalline trypsin, 50 iu of thrombin, or 25 μg of collagenase type I (all Sigma, St. Louis, Mo.).

live, unfixed cells = assay: Binding and uptake of peptide-functionalized quantum dots by cells; type: cell-based; conditions: streptavidin qdots coated with biotinylated peptide
Description: Biotinylated peptides were used to functionalize the 605ITK streptavidin qdots (Invitrogen, Carlsbad, Calif.) according to the manufacturer's instructions.
Streptavidin ITK-605 quantum dots (Invitrogen, Carlsbad, Calif.) were functionalized with biotinylated peptides by incubation with 100 fold molar excess of peptide followed by removal of free peptide by dialysis.

[2] = test system: orthotopic MIA PaCa-2 human pancreatic carcinoma xenografts; assay: In vivo systemic permeability assay with Evans Blue, pancreatic tumor xenografts; design: species or system mice; conditions: 100 nmol (or 100 μg) peptide 5 min after Evans Blue, tissues collected 30 min later
Description: FIGS. 5A and 5B show tumor-specific entry of Evans Blue (albumin) into extravascular tumor tissue in iRGD-injected mice. iRGD is SEQ ID NO:3. iRGDD is SEQ ID NO:4. Mice bearing orthotopically transplanted pancreatic or breast cancer xenografts were injected with […] of Evans Blue, followed 5 min later by 100 μg of iRGD peptide in PBS, PBS alone, or a control peptide. Tumors and tissues were collected 30 min. later and examined for dye content. […] About 4 times more dye accumulated in the iRGD-treated tumors than in control tumors. The control peptides included non-CendR RGD peptides.
FIGS. 9A-9D show a tumor-specific entry of Evans Blue into extravascular tumor tissue in iRGD-injected mice. iRGD is SEQ ID NO:3. iRGDD is SEQ ID NO:4. […] (FIGS. 9B to 9D) Quantification of Evans Blue in the pancreatic tumors and tissues. […]
Five min later, the mice received an intravenous injection with 100 μl of PBS with or without iRGD or control peptides at various concentrations. […] For Evans Blue quantification, the dye was extracted from tissues using N,N-dimethylformamide for 24 hours at 37° C. and the dye content was quantified by measuring the absorbance at 600 nm with a spectrophotometer. […] Quantification of the positive area in immunohistochemically stained sections, and total amount of antibodies within the tissues are described elsewhere in this manuscript.

[3] = Stability of methylated iRGD peptides against proteolysis; type: in vitro ADME; conditions: peptide bond protected by C-methylation or N-methylation

Substance	phage binding to and internalization into PPC1 cells [1]	effect of trypsin treatment of phage on binding to PPC1 cells [1]	also measured
RPARPARA	abolished cell binding and internalization	restored PPC-1 cell binding	
ATWLPPR [A7R, reference compound]	bound to and were taken up by PPC-1 cells		
TKPPR [enhanced tuftsin, reference compound]	bound to and were taken up by PPC-1 cells		
rparpar ([dR][dP][dA][dR][dP][dA][dR]; also: on quantum dots) [D-rparpar, RPARPAR peptide comprised of D-amino acids, on quantum dots]			binding and uptake of peptide-functionalized quantum dots (live, unfixed cells): greatly reduced ability to trigger uptake of quantum dots
CDCRGDCFC [RGD-4C, reference compound]		no effect	Evans Blue leakage/accumulation in tumor (vascular permeability effect) [2]: inactive
C(CMe)RGDKGPDC			stability against proteolysis [3]: stable against unwanted proteolysis
CR(NMe)GDKGPDC			stability against proteolysis [3]: stable against unwanted proteolysis
CRGDC [non-internalizing, non-CendR RGD peptide, reference compound]		no effect	
